Source: patent publication US5763625A, “Synthesis and use of β-lapachone analogs” (priority 1995, dated 1998)
Where two headings read alike, the source gives them in different places.

Experiments:
in vitro = conditions: human, u1-mel cells
[1] = test system: human radioresistant melanoma (U1-Mel) cells; test: Radiosensitization of X-irradiated confluence-arrested U1-Mel cells (survival)
Description: Another set of confluence-arrested U1-Mel cells were irradiated and plated immediately for survival to prevent repair (i.e., NPT). Survival levels were corrected for loss of plating efficiency due to prolonged confluence-arrest and drug exposures alone.
A set of X-irradiated U1-Mel cells were trypsinized and replaced immediately after radiation to determine the survival of cells not allowed to repair (i.e., NPT).

[2] = Stability in air, water or DMSO; conditions: solubilized in water or DMSO
purified human Topo I = molecular target: T1, purified human Topo I (Homo sapiens, UniProt P11387); test: Topo I inhibition, DNA unwinding assay; type: biochemical
T1 sequence (P11387 1-765): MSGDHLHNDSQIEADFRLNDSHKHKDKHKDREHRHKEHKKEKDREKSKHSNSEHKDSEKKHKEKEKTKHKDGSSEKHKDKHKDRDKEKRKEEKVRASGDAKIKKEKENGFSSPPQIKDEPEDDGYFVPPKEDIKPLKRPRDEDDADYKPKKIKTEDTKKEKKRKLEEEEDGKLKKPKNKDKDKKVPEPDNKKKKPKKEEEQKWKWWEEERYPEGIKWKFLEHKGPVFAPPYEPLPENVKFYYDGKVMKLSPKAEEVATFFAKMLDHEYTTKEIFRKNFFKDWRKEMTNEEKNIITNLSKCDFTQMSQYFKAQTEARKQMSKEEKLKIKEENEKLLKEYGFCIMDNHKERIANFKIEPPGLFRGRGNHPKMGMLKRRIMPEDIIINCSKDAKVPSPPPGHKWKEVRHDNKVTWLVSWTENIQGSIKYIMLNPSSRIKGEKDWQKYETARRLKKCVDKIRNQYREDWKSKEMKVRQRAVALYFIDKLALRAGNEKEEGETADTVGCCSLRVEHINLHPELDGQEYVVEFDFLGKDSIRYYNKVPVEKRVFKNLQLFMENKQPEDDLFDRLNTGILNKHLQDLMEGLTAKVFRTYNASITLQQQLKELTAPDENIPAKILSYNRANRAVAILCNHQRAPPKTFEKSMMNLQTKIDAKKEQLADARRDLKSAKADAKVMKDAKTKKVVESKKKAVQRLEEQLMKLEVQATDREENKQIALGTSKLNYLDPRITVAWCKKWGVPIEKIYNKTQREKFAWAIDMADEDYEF

[3] = Toxicity to unirradiated confluence-arrested U1-Mel cells; conditions: human
[4] = test system: Topo I enzyme activity in U1-Mel cells; test: Down-regulation of Topo I activity in irradiated U1-Mel cells with ADPRT inhibitors; type: cell-based, human; conditions: 5 μM, 1 hour prior to or 4 hours immediately after 400 cGy
Water solubility = type: physicochemical
Rous sarcoma virus = conditions: Schaffner-Sabba et al., J. Med. Chem 27: 990-994, 1984; cited from earlier work
[5] = 10 μM, 4 Hr posttreatment after X-rays
[6] = 10 μM, 4 Hr posttreatment, 1% survival
[7] = 10 μM, 4 Hr posttreatment, 10% survival
[8] = at 10 μM, Table 3 footnote, survival level not stated
[9] = 100 μM, 4 Hr posttreatment after X-rays
[10] = 100 μM, 4 Hr posttreatment, 1% survival
[11] = 100 μM, 4 Hr posttreatment, 10% survival
[12] = 2 μM, 4 Hr posttreatment after X-rays
[13] = 4 μM, 4 Hr posttreatment after X-rays
[14] = 4 μM, 4 Hr posttreatment, 1% survival
[15] = 4 μM, 4 Hr posttreatment, 10% survival

With `C=CCC1CC2=C(OC1(C)C)c1ccccc1C(=O)C2=O` (stereo not shown) the viability at 4 h, 10 µM (in vitro) was 89 ± 3%, the “effect on lethality of radiation” value [1] was “synergistic enhancement of lethality” and the “optimal concentration range for enhancing lethality of X-irradiated cells” value [1] was 10 to 40 µM. The “effect on survival recovery” value ([1]; 10 μM for 4 hours prior to radiation) was “no affect on survival recovery”, the Do [1, 5] was 54 ± 2 cGy and the Dq [1, 5] was 56 ± 4 cGy. The “DER Values 1%” value [1, 6] was 3.6 ± 0.3, the “DER Values 10%” value [1, 7] was 4.2 ± 0.2 and the optimal exposure time ([1]; 10 μM, 400 cGy) was 4 to 6 h. The “dose enhancement ratios (DERs)” value ([1]; 10 μM, added immediately after radiation, at 10% survival levels) was 3.6±0.3, the reversibility of radiosensitization ([1]; 400 cGy, 10 μM for 4 hours, then drug removed) was “did not repair after drug removal” and the “dose enhancement ratios (DERs)” value [1, 8] was 3.6 ± 0.3. The “drug enhanced radiation value (DER value)” value ([1]; dose not stated) was 3.6, the “rank among Topo I-active drugs at increasing sensitivity to X-irradiation” value ([1]; posttreatment addition) was “most effective agent” and the “time until loss of stability” value [2] was > 4 days. For the same molecule, the “estimated Ki, Topo I” value (purified human Topo I; DNA unwinding assay) was “approximately 100 nM” and the “lowest concentration inhibiting Topo I (as little as)” value (purified human Topo I; DNA unwinding assay) was 10 nM.

Molecule `CCC1(O)C(=O)OCc2c1cc1n(c2=O)Cc2cc3c(N)cccc3nc2-1` (racemic) [9-Amino-20(RS)-, 9-aminocamptothecin] has a viability at 4 h, 10 µM (in vitro) of 67 ± 5%, a Do [1, 5] of 109 ± 2 cGy and a Dq [1, 5] of 110 ± 2 cGy. The “DER Values 1%” value [1, 6] was 2.9 ± 0.4, the “DER Values 10%” value [1, 7] was 2.5 ± 0.3 and the “dose enhancement ratios (DERs)” value [1, 8] was 2.9 ± 0.4.

In the case of `CCC1(O)C(=O)OCc2c1cc1n(c2=O)Cc2cc3c(NC(=O)CN)cccc3nc2-1` (racemic) [9-Glycinamido-20(RS)-], the Do [1, 9] is reported as 278 ± 6 cGy, the Dq [1, 9] is reported as 352 ± 4 cGy and the “DER Values 1%” value [1, 10] is reported as 1.4 ± 0.4. The “DER Values 10%” value [1, 11] was 1.1 ± 0.1 and the viability at 4 h, 100 µM [3] was 61 ± 3%.

`CCC1(N)C(=O)OCc2c1cc1n(c2=O)Cc2cc3ccccc3nc2-1` (racemic) [20-Amino-20(RS)-Deoxy(RS)] showed a viability at 4 h, 10 µM (in vitro) of 64 ± 3%.

For `NC(=O)c1cccc(N)c1` [3-ABA, 3-aminobenzamide], the “effect on down-regulation of Topo I enzyme activity” value [4] was “prevented the down-regulation”.

In the case of `CC1(C)OC2=C(CC1O)C(=O)C(=O)c1ccccc12` (stereo not drawn) [3-hydroxy-β-lapachone], the water solubility (Water solubility) is reported as “water-soluble”.

For `CCC1(O)C(=O)OCc2c1cc1n(c2=O)Cc2cc3cc4c(cc3nc2-1)OCO4` (stereo not shown) [10,11-Methylonedioxy-], the “DER Values 1%” value [1] was 1.4 ± 0.1, the “DER Values 10%” value [1] was 1.2 ± 0.2 and the Do [1] was 254 ± 5 cGy. For the same molecule, the Dq [1] was 345 ± 3 cGy and the viability at 4 h, 10 µM [3] was 62 ± 7%.

For `Cc1cccc2c1CCNC2=O` [PD 1], the viability at 5 h, 0.5 µM (in vitro) was 92 ± 1.6% and the “survival of X-irradiated U1-Mel cells” value ([1]; 0.5 μM, five hour exposure, 300 min) was 5±0.2%.

For `CC[C@@]1(O)C(=O)OCc2c1cc1n(c2=O)Cc2cc3c(CN(C)C)c(O)ccc3nc2-1` [Topotecan], the Do [1, 12] was 186 ± 4 cGy, the Dq [1, 12] was 190 ± 6 cGy and the “DER Values 1%” value ([1]; 2 μM, 4 Hr posttreatment, 1% survival) was 1.6 ± 0.4. For the same molecule, the “DER Values 10%” value ([1]; 2 μM, 4 Hr posttreatment, 10% survival) was 1.4 ± 0.6, the Do [1, 13] was 132 ± 5 cGy and the Dq [1, 13] was 127 ± 5 cGy. The “DER Values 1%” value [1, 14] was 1.7 ± 0.3, the “DER Values 10%” value [1, 15] was 1.6 ± 0.2 and the Do [1, 9] was 113 ± 2 cGy. The Dq [1, 9] was 100 ± 3 cGy, the “DER Values 1%” value [1, 10] was 2.7 ± 0.2 and the “DER Values 10%” value [1, 11] was 2.2 ± 0.2. For the same molecule, the “dose enhancement ratios (DERs)” value [1, 8] was 2.3 ± .02, the viability at 4 h, 2 µM [3] was 95 ± 3% and the viability at 4 h, 4 µM [3] was 92 ± 4%. For the same molecule, the viability at 4 h, 100 µM [3] was 63 ± 7%.

In the case of `CC[C@@]1(O)C(=O)OCc2c1cc1n(c2=O)Cc2cc3ccccc3nc2-1` [camptothecin], the “DER Values 1%” value [1] is reported as 2.1 ± 0.6, the “DER Values 10%” value [1] is reported as 1.8 ± 0.1 and the Do [1] is reported as 162 ± 7 cGy. The Dq [1] was 132 ± 2 cGy, the “dose enhancement ratios (DERs)” value [1] was 2.1±0.6 and the viability at 4 h, 4 µM [3] was 54 ± 2%. For the same molecule, the “estimated Ki, Topo I” value (purified human Topo I; drug added to the DNA before the enzyme) was 350 nM.

`CC1(C)CCC2=C(O1)c1ccccc1C(=O)C2=O` [β-lapachone] showed a viability at 4 h, 4 µM (in vitro) of 79 ± 4%, a Do [1, 13] of 154 ± 8 cGy and a Dq [1, 13] of 152 ± 21 cGy. For the same molecule, the “DER Values 1%” value [1, 14] was 1.4 ± 0.4, the “DER Values 10%” value [1, 15] was 1.5 ± 0.3 and the “dose enhancement ratios (DERs)” value ([1]; at 4 μM, at 10% survival levels) was 1.4±0.4. The “dose enhancement ratios (DERs)” value ([1]; at 4 μM, Table 3 footnote, survival level not stated) was 1.4 ± 0.4, the “estimated Ki, Topo I” value (purified human Topo I; DNA unwinding assay) was 150 nM and the “life of Rous sarcoma virus infected chickens” value (Rous sarcoma virus) was “prolongs the life”.
